Laboratory results published in article PMC4394430, “Licochalcone A, a Polyphenol Present in Licorice, Suppresses UV-Induced COX-2 Expression by Targeting PI3K, MEK1, and B-Raf” (International Journal of Molecular Sciences, 2015).

Key:
MEK1 = target: T1, MEK1 (Homo sapiens, UniProt Q02750); assay: LicoA-Sepharose 4B pull-down, immunoblot; type: binding; settings: pH 7.5; 4 C; immobilised LicoA; not blocked by ATP (non-competitive)
T1 construct: gene MAP2K1

B-Raf [1] = target: T2, B-Raf (Homo sapiens, UniProt P15056); assay: LicoA-Sepharose 4B pull-down, immunoblot; type: binding; settings: pH 7.5; 4 C; immobilised LicoA; blocked by ATP (ATP-competitive)
T2 construct: gene BRAF
T2 sequence (P15056 2-766): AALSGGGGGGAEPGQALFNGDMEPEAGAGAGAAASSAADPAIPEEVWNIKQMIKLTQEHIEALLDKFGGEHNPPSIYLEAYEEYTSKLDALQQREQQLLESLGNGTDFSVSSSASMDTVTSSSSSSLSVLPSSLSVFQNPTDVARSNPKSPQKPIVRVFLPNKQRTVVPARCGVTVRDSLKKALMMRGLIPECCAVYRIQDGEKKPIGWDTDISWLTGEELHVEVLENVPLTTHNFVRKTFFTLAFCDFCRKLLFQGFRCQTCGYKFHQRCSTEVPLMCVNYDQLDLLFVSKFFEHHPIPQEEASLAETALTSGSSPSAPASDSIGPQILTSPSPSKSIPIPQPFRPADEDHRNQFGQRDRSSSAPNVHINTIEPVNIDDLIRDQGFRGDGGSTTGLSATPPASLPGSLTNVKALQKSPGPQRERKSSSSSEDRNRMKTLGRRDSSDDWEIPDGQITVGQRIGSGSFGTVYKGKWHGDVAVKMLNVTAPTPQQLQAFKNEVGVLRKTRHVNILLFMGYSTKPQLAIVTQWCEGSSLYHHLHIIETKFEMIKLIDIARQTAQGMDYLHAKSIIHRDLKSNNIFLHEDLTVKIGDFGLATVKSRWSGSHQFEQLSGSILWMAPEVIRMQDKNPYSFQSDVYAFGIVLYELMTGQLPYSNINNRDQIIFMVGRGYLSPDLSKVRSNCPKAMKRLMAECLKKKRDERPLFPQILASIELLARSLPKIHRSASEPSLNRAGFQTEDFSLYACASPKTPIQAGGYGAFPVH

B-Raf [2] = target: T2, B-Raf; assay: […] kinase assay, inactive MEK1 and MBP peptide; type: biochemical; settings: 5 and 10 uM LicoA; pH 7.5; 30 C; coupled readout; ATP-competitive
B-Raf [3] = target: T2, B-Raf; settings: 10 and 100 uM ATP; 4 C; competitive with LicoA

T1 sequence (Q02750 whole entry): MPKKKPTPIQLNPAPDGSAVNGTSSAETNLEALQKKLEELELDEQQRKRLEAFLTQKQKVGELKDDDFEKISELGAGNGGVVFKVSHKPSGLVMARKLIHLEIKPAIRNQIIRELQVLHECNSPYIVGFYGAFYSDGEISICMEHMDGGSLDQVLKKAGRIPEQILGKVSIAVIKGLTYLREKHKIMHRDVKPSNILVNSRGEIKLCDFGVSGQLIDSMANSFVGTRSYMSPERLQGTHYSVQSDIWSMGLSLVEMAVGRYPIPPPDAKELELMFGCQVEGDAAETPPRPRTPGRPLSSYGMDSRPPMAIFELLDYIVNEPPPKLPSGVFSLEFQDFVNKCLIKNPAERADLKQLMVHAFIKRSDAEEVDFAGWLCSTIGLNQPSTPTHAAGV

Compound | LicoA-Sepharose 4B pull-down, immunoblot (MEK1) | LicoA-Sepharose 4B pull-down, immunoblot (B-Raf [1]) | % inhibition (B-Raf [2]) | ATP competition with LicoA-Sepharose 4B pull-down (B-Raf [3])
C=CC(C)(C)c1cc(/C=C/C(=O)c2ccc(O)cc2)c(OC)cc1O [LicoA, Licochalcone A] | LicoA binds with MEK1 in an ATP non-competitive manner | LicoA binds with PI3K and B-Raf in competition with ATP | strongly blocked B-Raf (Figure 3C) activity in a dose-dependent manner | –
Nc1ncnc2c1ncn2[C@@H]1O[C@H](COP(=O)(O)OP(=O)(O)OP(=O)(O)O)[C@@H](O)[C@H]1O [ATP] | – | – | – | ATP treatment blocked the binding ability of LicoA with PI3K (Figure 4B) and B-Raf (Figure 4F)
